In patent US6465509B2, “Pyrones as inhibitors of cyclooxygenase-2” (Merck Frosst Canada & Co., priority 2000, dated 2002):

Experiments:
COX-2 [1] = target: T1, COX-2 (Homo sapiens, UniProt P35354); test: Human whole blood assay, COX-2 (LPS-induced PGE2 production); type: cell-based; parameters: endogenous in cells; host or cells: fresh heparinized human whole blood from volunteers, incubated with LPS; settings: LPS-induced PGE2, 24 hours at 37° C., read-out: COX-2 (IC50 μM) HWB
T1 sequence (P35354 18-604): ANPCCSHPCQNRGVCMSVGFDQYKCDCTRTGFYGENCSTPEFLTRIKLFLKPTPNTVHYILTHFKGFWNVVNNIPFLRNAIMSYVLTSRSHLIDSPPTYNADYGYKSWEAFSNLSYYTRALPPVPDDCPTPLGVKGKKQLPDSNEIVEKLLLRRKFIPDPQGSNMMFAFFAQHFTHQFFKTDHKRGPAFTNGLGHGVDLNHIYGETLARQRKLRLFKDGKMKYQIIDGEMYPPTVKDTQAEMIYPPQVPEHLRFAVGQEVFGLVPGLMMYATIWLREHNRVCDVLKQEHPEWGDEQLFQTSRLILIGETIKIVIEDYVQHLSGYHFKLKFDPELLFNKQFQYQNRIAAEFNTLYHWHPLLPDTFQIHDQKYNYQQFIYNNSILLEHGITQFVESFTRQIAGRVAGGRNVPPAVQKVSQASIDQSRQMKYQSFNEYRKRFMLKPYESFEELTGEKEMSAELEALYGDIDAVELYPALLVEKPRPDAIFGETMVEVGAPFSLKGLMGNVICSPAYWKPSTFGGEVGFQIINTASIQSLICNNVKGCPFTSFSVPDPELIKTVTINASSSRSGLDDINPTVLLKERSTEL
Protocol: Human whole blood provides a protein and cell-rich milieu appropriate for the study of biochemical efficacy of anti-inflammatory compounds such as selective COX-2 inhibitors. […] This is consistent with the observation that COX-2 inhibitors have no effect on PGE2 production in normal blood. These inhibitors are active only after incubation of human whole blood with LPS, which induces COX-2. This assay can be used to evaluate the inhibitory effect of selective COX-2 inhibitors on PGE2 production. As well, platelets in whole blood contain a large amount of the COX-1 enzyme. Immediately following blood clotting, platelets are activated through a thrombin-mediated mechanism. This reaction results in the production of thromboxane B2 (TxB2) via activation of COX-1. Thus, the effect of test compounds on TxB2 levels following blood clotting can be examined and used as an index for COX-1 activity. Therefore, the degree of selectivity by the test compound can be determined by measuring the levels of PGE2 after LPS induction (COX-2) and TxB2 following blood clotting (COX-1) in the same assay.
A. COX-2 (LPS-induced PGE2 production)
Fresh blood is collected in heparinized tubes by venipuncture from both male and female volunteers. The subjects have no apparent inflammatory conditions and have not taken any NSAIDs for at least 7 days prior to blood collection. Plasma is immediately obtained from a 2 mL blood aliquot to use as blank (basal levels of PGE2). The remaining blood is incubated with LPS (100 μg/ml final concentration, Sigma Chem, #L-2630 from E. coli; diluted in 0.1% BSA (Phosphate buffered saline) for 5 minutes at room temperature. Five hundred μL aliquots of blood are incubated with either 2 μL of vehicle (DMSO) or 2 μL of a test compound at final concentrations varying from 10 nM to 30 μM for 24 hours at 37° C. At the end of the incubation, the blood is centrifuged at 12,000×g for 5 minutes to obtain plasma. A 100 μL aliquot of plasma is mixed with 400 μL of methanol for protein precipitation. The supernatant is obtained and is assayed for PGE2 using a radioimmunoassay kit (Amersham, RPA#530) after conversion of PGE2 to its methyl oximate derivative according to the manufacturer's procedure.

COX-2 [2] = target: T1, COX-2; test: Whole cell assay for COX-2 using CHO[hCOX-2] transfected cell line; type: cell-based; parameters: expressed in transfected cells; host or cells: CHO cells stably transfected with pCDNAIII (CHO[hCOX-2]); settings: CHO[hCOX-2] cells, PGE2 synthesis, 10 μM AA
Description: Whole cell assays for COX-2 and COX-1 using CHO transfected cell lines
Chinese hamster ovary (CHO) cell lines which have been stably transfected with an eukaryotic expression vector pCDNAIII containing either the human COX-1 or COX-2 cDNA's are used for the assay. These cell lines are referred to as CHO[hCOX-1] and CHO[hCOX-2], respectively. For cyclooxygenase assays, CHO[hCOX-1] cells from suspension cultures and CHO[hCOX-2] cells prepared by trypsinization of adherent cultures are harvested by centrifugation (300×g, 10 min) and washed once in HBSS containing 15 mM HEPES, pH 7.4, and resuspended in HBSS, 15 mM HEPES, pH 7.4, at a cell concentration of 1.5×10^6 cells/ml. Drugs to be tested are dissolved in DMSO to 66.7-fold the highest test drug concentration. Compounds are typically tested at 8 concentrations in duplicate using serial 3-fold serial dilutions in DMSO of the highest drug concentration. Cells (0.3×10^6 cells in 200 μl) are preincubated with 3 μl of the test drug or DMSO vehicle for 15 min at 37° C. Working solutions of peroxide-free AA (5.5 μM and 110 μM AA for the CHO[hCOX-1] and CHO[COX-2] assays, respectively) are prepared by a 10-fold dilution of a concentrated AA solution in ethanol into HBSS containing 15 mM HEPES, pH 7.4. Cells are then challenged in the presence or absence of drug with the AA/HBSS solution to yield a final concentration of 0.5 μM AA in the CHO[hCOX-1] assay and a final concentration of 10 μM AA in the CHO[hCOX-2] assay. The reaction is terminated by the addition of 10 μl 1N HCl followed by neutralization with 20 μl of 0.5N NaOH. The samples are centrifuged at 300×g at 4° C. for 10 min, and an aliquot of the clarified supernatant is appropriately diluted for the determination of PGE2 levels using an enzyme-linked immunoassay for PGE2 (Correlate PGE2 enzyme immunoassay kit, Assay Designs, Inc.). Cyclooxygenase activity in the absence of test compounds is determined as the difference in PGE2 levels of cells challenged with arachidonic acid versus the PGE2 levels in cells mock-challenged with ethanol vehicle. Inhibition of PGE2 synthesis by test compounds is calculated as a percentage of the activity in the presence of drug versus the activity in the positive control samples.
Compounds of the present invention are inhibitors of cyclooxygenase-2 and are thereby useful in the treatment of cyclooxygenase-2 mediated diseases as enumerated above. The activities of the compounds against cyclooxygenase may be seen in the representative results shown below. In the assay, inhibition is determined by measuring the amount of prostaglandin E2 (PGE2) synthesized in the presence of arachidonic acid, cyclooxygenase-1 or cyclooxygenase-2 and a putative inhibitor. The IC50 values represent the concentration of putative inhibitor required to return PGE2 synthesis to 50% of that obtained as compared to the uninhibited control.

SMILES: CS(=O)(=O)c1ccc(-c2cc(CC(F)(F)F)oc(=O)c2-c2ccccc2)cc1 [Example 13, 4-(4-Methylsulfonyl)phenyl-3-phenyl-6-(2,2,2-trifluoroethyl)-pyran-2-one]
- IC50 (COX-2 [1]): 10.5 µM
- IC50 (COX-2 [2]): 0.37 µM
